Results on two compounds are retold here after EP2604265A1, “P2x7 antagonists as frontline or adjunctive treatment against status epilepticus” (Royal College of Surgeons in Ireland (RCSI), priority 2011, dated 2013).

For assay [1], the system named is 10 day old Sprague Dawley rat pups. The experiment in a line: Neonatal SE model, intra-amygdala KA in P10 rat pups, EEG. Type of assay: in vivo. To be noted: 150 µmol/kg intraperitoneally, 40 min post-KA. How it is done:
10 day old Sprague Dawley rat pups were obtained from Harlan UK Limited (Blackthorn, UK). Rat pups were equipped with skull surface EEG and given intra-amygdala microinjection of kainic acid (2 µg) via an implanted guide cannula. P10 rat pups develop SE shortly after KA injection. Seizures in the model are propagated to the hippocampus and surface EEG recordings have previously shown a transition to low amplitude high frequency EEG, developing into high amplitude high frequency epileptiform EEG seizures. The pups display behaviour including initial masticatory movements and salivation, developing to periods of facial and forelimb myoclonus and progressing to the most commonly observed behaviour of wild running, loss of posture and swimming motions. The high amplitude high frequency spiking is sustained and corresponds to wild running and swimming behaviours during recordings 1-2 h after KA. By 4 hours, continuous seizures have abated but the EEG continues to display intermittent lower-amplitude high frequency spiking and high amplitude low frequency spikes even after 24 h. The pathological consequences of neonatal seizures in the model include hippocampal cell death and the animals later display unilateral hippocampal sclerosis.
Digitized EEG recordings were analyzed off-line using manual assessment and automated software. The occurrence of high amplitude high frequency spiking during seizures is synonymous with injury-causing electrographic seizures during SE (also termed type IV electrographic seizures) (Lowenstein et al., 1991; Henshall et al., 2000). The duration of high-frequency (>5 Hz) high-amplitude (>2× baseline) polyspike discharges of ≥5 s duration (HAHFDs) was counted by a reviewer blind to treatment. Further EEG analysis was performed by uploading EEG into Labchart7 software (ADInstruments) to calculate the power spectral density (total power, a measure of the input signal's power (amplitude) over frequency) EEG spectrogram (spectral power against frequency and time). […]

The subject of assay [2] is Adult male C57BL/6 mice. Kind of assay: Refractory SE model in mice, drugs given 60 min post-KA, EEG during the next hour. The format is in vivo. The protocol:
(§1) Adult male C57BL/6 mice (20-25 g) were obtained from Harlan UK (Blackthorn, UK). Mice were first anesthetized using isoflurane (3-5%) and maintained normothermic by means of a feedback-controlled heat blanket (Harvard Apparatus Ltd, Kent, UK). Mice were next placed in a stereotaxic frame and three partial craniectomies performed to affix cortical skull-mounted EEG electrodes (Bilaney Consultants Ltd, Sevenoaks, UK). EEG was recorded using a Grass Comet XL digital EEG (Medivent Ltd, Lucan, Ireland). A guide cannula was affixed (coordinates from Bregma: AP = 0.94; L = 2.85 mm) and the assembly fixed in place with dental cement. Anesthesia was then discontinued and freely moving mice were placed inside a clear perspex recording chamber. EEG recordings were commenced and after establishing baseline EEG for a few minutes, an injection cannula was lowered through the guide cannula for injection of kainic acid (KA) (Ocean Produce International, Nova Scotia, Canada) into the basolateral amygdala nucleus (0.3 µg in 0.2 µl phosphate-buffered saline). Non-seizure control mice underwent the same surgical procedure but received 0.2 µl intra-amygdala vehicle. Mice were killed at different time-points (1, 4, 8 or 24 h) later and perfused with saline to remove intravascular blood components. Brains were either flash-frozen whole in 2-methylbutane at […] or perfused with 4% PFA for histopathology, or dissected on ice to obtain whole hippocampus or microdissected to obtain the different hippocampal subfields (CA1, DG and CA3).
(§2) Digitized EEG recordings were analyzed off-line using manual assessment and automated software. The occurrence of high amplitude high frequency spiking during seizures is synonymous with injury-causing electrographic seizures during SE (also termed type IV electrographic seizures) (Lowenstein et al., 1991; Henshall et al., 2000). The duration of high-frequency (>5 Hz) high-amplitude (>2× baseline) polyspike discharges of ≥5 s duration (HAHFDs) was counted by a reviewer blind to treatment. Further EEG analysis was performed by uploading EEG into Labchart7 software (ADInstruments) to calculate the power spectral density (total power, a measure of the input signal's power (amplitude) over frequency) EEG spectrogram (spectral power against frequency and time).
(§3) A-438079 (3-[[5-(2,3-Dichlorophenyl)-1H-tetrazol-1-yl]methyl]pyridine hydrochloride) (50 µM) was from Tocris Biosciences (Bristol, U.K.) and the P2X7R specific antibody was from Alomone Labs (APR-008, Alomone Labs, Ltd, Jerusalem, Israel) and injected at 0.7 mg/ml. Lorazepam (Ativan®, Wyeth, Taplow, U.K.) (6 mg/kg) was administered intraperitoneally (i.p.) at 40 or 60 min after KA.
To model refractory SE, seizures were allowed to continue beyond the normal time when lorazepam is given (40 min) and instead the effects of drugs were recorded 60 min post-KA on the EEG during the next hour.

Assay [3] relates to Adult male C57BL/6 mice. Kind of assay: Intra-amygdala KA-induced SE in mice, EEG, early post-treatment after seizure onset. The format is in vivo. To be noted: i.c.v. 15 min after KA. The protocol: as §1, §2, §3
15 min after the injection of KA. […]

The subject of assay [4] is P2Y receptors. Particulars: selectivity of BBG; cited from earlier work.

As for `Cl.Clc1cccc(-c2nnnn2Cc2cccnc2)c1Cl` [A-438079, 3-[[5-(2,3-Dichlorophenyl)-1H-tetrazol-1-yl]methyl]pyridine hydrochloride], the seizures result in assay [1] (P10 rat pups) is “strongly reduced”. In assay [1] (vs vehicle (PBS)), the amplitude result was “less amplitude” and the total power result is given as “less total power”. Moreover, the “total seizure time (duration of HAHFDs)” value in assay [2] (given 60 min after KA, 60 min recording, vs vehicle) is recorded as “not significantly different”. Also, in assay [2] (given 60 min after KA, particularly within the first 15-30 min following injection), the seizure activity entry is given as “some suppression”. The “mice continued in SE” value in assay [2] (given alone 60 min after KA, number of mice / group) was 3/5. For the same compound, in assay [3] (recorded until lorazepam at 40 min post-KA, vs vehicle), the “duration of HAHFDs” value is reported as “significantly reduced”. For the same compound, the Total seizure power result in assay [3] (until 40 min post-KA, vs vehicle) is given as “significantly reduced”. In assay [3] (vs vehicle), the “frequency of the EEG” value was “No changes”. Also, the seizure amplitude result in assay [3] (spectral heat map during SE) is “decreased”.

Take `CCOc1ccc(Nc2ccc(C(=C3C=CC(=[N+](CC)Cc4cccc(S(=O)(=O)[O-])c4)C=C3C)c3ccc(N(CC)Cc4cccc(S(=O)(=O)O)c4)cc3C)cc2)cc1` [BBG, Brilliant Blue G]: the “inhibition of some P2Y receptors” value in assay [4] was “low micromolar range”.
